Tested on: MV-4-11 cells
Assay: Gene expression microarray analysis (Affymetrix PrimeView) and GSEA
Assay type: cell-based, human
Set-up: RFU PODN (11730768_x_at) / Fold change /veh PODN (11730768_x_at) / RFU LINC00158 (11744669_a_at) / Fold change /veh LINC00158 (11744669_a_at) / RFU DUSP10 (11751237_a_at) / Fold change /veh DUSP10 (11751237_a_at) / RFU ID3 (11757404_x_at) / Fold change /veh ID3 (11757404_x_at) / RFU PLEKHG5 (11737974_s_at) / Fold change /veh PLEKHG5 (11737974_s_at) / RFU LRRC4B (11730491_at) / Fold change /veh LRRC4B (11730491_at) / RFU GIMAP4 (11747438_a_at) / Fold change /veh GIMAP4 (11747438_a_at) / RFU KRT8 (11758183_x_at) / Fold change /veh KRT8 (11758183_x_at) / RFU CNN1 (11734310_a_at) / Fold change /veh CNN1 (11734310_a_at) / RFU VPS37D (11726825_at) / Fold change /veh VPS37D (11726825_at) / RFU C10orf10 (11716522_x_at) / Fold change /veh C10orf10 (11716522_x_at) / RFU KIR2DL2 /// KIR2DL4 /// KIR2DL5A /// KIR2DL5B /// KIR2DS1 /// KIR2DS2 /// KIR2DS3 /// KIR2DS4 /// KIR3DL3 /// KIR3DL3 /// KIR3DS1 (11738374_at) / Fold change /veh KIR2DL2 /// KIR2DL4 /// KIR2DL5A /// KIR2DL5B /// KIR2DS1 /// KIR2DS2 /// KIR2DS3 /// KIR2DS4 /// KIR3DL3 /// KIR3DL3 /// KIR3DS1 (11738374_at) / RFU C1QL1 (11718748_at) / Fold change /veh C1QL1 (11718748_at) / RFU TMPRSS4 (11747572_a_at) / Fold change /veh TMPRSS4 (11747572_a_at) / RFU HAMP (11756126_x_at) / Fold change /veh HAMP (11756126_x_at) / RFU RNFT2 (11725882_a_at) / Fold change /veh RNFT2 (11725882_a_at) / RFU NR4A2 (11747474_a_at) / Fold change /veh NR4A2 (11747474_a_at) / RFU ABCC12 (11746883_a_at) / Fold change /veh ABCC12 (11746883_a_at) / RFU TMEM136 (11760407_x_at) / Fold change /veh TMEM136 (11760407_x_at) / RFU CLDN22 /// WWC2 (11732394_at) / Fold change /veh CLDN22 /// WWC2 (11732394_at) / RFU HLA-DPB1 (11760878_x_at) / Fold change /veh HLA-DPB1 (11760878_x_at) / RFU SPINT1 (11716480_a_at) / Fold change /veh SPINT1 (11716480_a_at) / RFU GAP43 (11754022_s_at) / Fold change /veh GAP43 (11754022_s_at) / RFU A4GNT (11735810_at) / Fold change /veh A4GNT (11735810_at) / RFU PRB3 (11715151_x_at) / Fold change /veh PRB3 (11715151_x_at) / RFU TUBB4B (11761932_at) / Fold change /veh TUBB4B (11761932_at) / RFU CAPN14 (11732068_a_at) / Fold change /veh CAPN14 (11732068_a_at) / RFU TMCC2 (11721928_a_at) / Fold change /veh TMCC2 (11721928_a_at) / RFU IRGQ (11745062_a_at) / Fold change /veh IRGQ (11745062_a_at) / RFU FAM174B (11720279_a_at) / Fold change /veh FAM174B (11720279_a_at) / RFU TMPRSS4 (11748680_a_at) / Fold change /veh TMPRSS4 (11748680_a_at) / RFU FAM212B (11763350_a_at) / Fold change /veh FAM212B (11763350_a_at) / RFU PLEKHG5 (11743358_a_at) / Fold change /veh PLEKHG5 (11743358_a_at) / RFU ZSCAN30 (11745921_a_at) / Fold change /veh ZSCAN30 (11745921_a_at) / RFU CMKLR1 (11741424_a_at) / Fold change /veh CMKLR1 (11741424_a_at) / RFU LOC101060620 /// MAPK8IP1 (11723275_at) / Fold change /veh LOC101060620 /// MAPK8IP1 (11723275_at) / RFU SPTSSB (11747773_x_at) / Fold change /veh SPTSSB (11747773_x_at) / RFU PRSS12 (11739890_at) / Fold change /veh PRSS12 (11739890_at) / RFU BIN1 (11741810_x_at) / Fold change /veh BIN1 (11741810_x_at) / RFU WNT11 (11732464_a_at) / Fold change /veh WNT11 (11732464_a_at) / RFU C10orf10 (11716521_a_at) / Fold change /veh C10orf10 (11716521_a_at) / RFU C5orf56 (11738089_at) / Fold change /veh C5orf56 (11738089_at) / RFU CYB561 (11721691_x_at) / Fold change /veh CYB561 (11721691_x_at) / RFU ANKRD19P (11752326_a_at) / Fold change /veh ANKRD19P (11752326_a_at) / RFU OR2T12 /// OR2T33 /// OR2T8 (11738714_s_at) / Fold change /veh OR2T12 /// OR2T33 /// OR2T8 (11738714_s_at) / RFU VCAN (11748164_a_at) / Fold change /veh VCAN (11748164_a_at) / RFU JSRP1 (11732532_at) / Fold change /veh JSRP1 (11732532_at) / RFU KRTAP10-11 (11738290_x_at) / Fold change /veh KRTAP10-11 (11738290_x_at) / RFU MYO3A (11730013_a_at) / Fold change /veh MYO3A (11730013_a_at) / RFU EBF3 (11725865_a_at) / Fold change /veh EBF3 (11725865_a_at) / RFU CAMK2N1 (11719241_x_at) / Fold change /veh CAMK2N1 (11719241_x_at) / RFU C5orf56 (11738088_a_at) / Fold change /veh C5orf56 (11738088_a_at) / RFU OLFML3 (11715873_a_at) / Fold change /veh OLFML3 (11715873_a_at) / RFU LOC100653217 /// NTM (11731650_a_at) / Fold change /veh LOC100653217 /// NTM (11731650_a_at) / RFU MAPK11 (11762145_a_at) / Fold change /veh MAPK11 (11762145_a_at) / RFU FIZ1 (11724087_x_at) / Fold change /veh FIZ1 (11724087_x_at) / RFU OASL (11726364_x_at) / Fold change /veh OASL (11726364_x_at) / RFU SOX15 (11748057_x_at) / Fold change /veh SOX15 (11748057_x_at) / RFU CD79A (11719716_a_at) / Fold change /veh CD79A (11719716_a_at) / RFU HIST1H1D (11736915_at) / Fold change /veh HIST1H1D (11736915_at) / RFU CASKIN2 (11723855_a_at) / Fold change /veh CASKIN2 (11723855_a_at) / RFU LOC730098 (11760151_x_at) / Fold change /veh LOC730098 (11760151_x_at) / RFU OR4N2 (11742367_at) / Fold change /veh OR4N2 (11742367_at) / RFU PRRT2 (11749266_a_at) / Fold change /veh PRRT2 (11749266_a_at) / RFU SNX32 (11753110_a_at) / Fold change /veh SNX32 (11753110_a_at) / RFU CDHR5 (11726645_a_at) / Fold change /veh CDHR5 (11726645_a_at) / RFU RCAN1 (11760418_a_at) / Fold change /veh RCAN1 (11760418_a_at) / RFU FAM167A (11723789_a_at) / Fold change /veh FAM167A (11723789_a_at) / RFU FAM26E (11764081_at) / Fold change /veh FAM26E (11764081_at) / RFU ISYNA1 (11749810_s_at) / Fold change /veh ISYNA1 (11749810_s_at) / RFU ACY1 (11761880_at) / Fold change /veh ACY1 (11761880_at) / RFU 11764098_at / Fold change /veh 11764098_at / RFU SAMD14 (11745864_x_at) / Fold change /veh SAMD14 (11745864_x_at) / RFU NPB (11741838_a_at) / Fold change /veh NPB (11741838_a_at) / RFU TMPRSS6 (11731388_a_at) / Fold change /veh TMPRSS6 (11731388_a_at) / RFU KRTAP10-2 (11738614_at) / Fold change /veh KRTAP10-2 (11738614_at) / RFU ARHGAP8 /// PRR5-ARHGAP8 (11727945_x_at) / Fold change /veh ARHGAP8 /// PRR5-ARHGAP8 (11727945_x_at) / RFU KRTAP5-7 /// NADSYN1 (11734609_at) / Fold change /veh KRTAP5-7 /// NADSYN1 (11734609_at) / RFU RASL12 (11751679_a_at) / Fold change /veh RASL12 (11751679_a_at) / RFU CDKN2B (11736163_a_at) / Fold change /veh CDKN2B (11736163_a_at) / RFU PRF1 (11729649_at) / Fold change /veh PRF1 (11729649_at) / RFU, ZNF638 /// ZNF638-IT1 / Fold change vs veh, ZNF638 /// ZNF638-IT1 / RFU, PANK3 / Fold change vs veh, PANK3 / RFU, SH3YL1 / Fold change vs veh, SH3YL1 / RFU, ZEB2 / Fold change vs veh, ZEB2 / RFU, NRIP1 / Fold change vs veh, NRIP1 / RFU, PTTG1IP / Fold change vs veh, PTTG1IP / RFU, CAPN2 / Fold change vs veh, CAPN2 / RFU, MED14 / Fold change vs veh, MED14 / RFU, SNORA58 / Fold change vs veh, SNORA58 / RFU, C1orf63 / Fold change vs veh, C1orf63 / RFU, LRRFIP1 / Fold change vs veh, LRRFIP1 / RFU, NDUFAF7 / Fold change vs veh, NDUFAF7 / RFU, SLC12A2 / Fold change vs veh, SLC12A2 / RFU, IBTK / Fold change vs veh, IBTK / RFU, ESF1 / Fold change vs veh, ESF1 / Fold change vs veh, TMEM50B / RFU, TAOK1 / Fold change vs veh, TAOK1 / RFU, ACBD3 / Fold change vs veh, ACBD3 / RFU, TMA16 / Fold change vs veh, TMA16 / RFU, RWDD3 / Fold change vs veh, RWDD3 / RFU, BCAT1 / Fold change vs veh, BCAT1 / RFU, EDEM3 / Fold change vs veh, EDEM3 / RFU, TMEM33 / Fold change vs veh, TMEM33 / RFU, WDR75 / Fold change vs veh, WDR75 / RFU, AHCTF1 / Fold change vs veh, AHCTF1 / RFU, TFRC / Fold change vs veh, TFRC / RFU, ZDHHC17 / Fold change vs veh, ZDHHC17 / RFU, NOM1 / Fold change vs veh, NOM1 / RFU, ARL8B / Fold change vs veh, ARL8B / RFU, ZBTB11 / Fold change vs veh, ZBTB11 / RFU, TAMM41 / Fold change vs veh, TAMM41 / RFU, KIAA1704 /// LOC100996395 / Fold change vs veh, KIAA1704 /// LOC100996395 / RFU, ING1 / Fold change vs veh, ING1 / RFU, TRMT61B / Fold change vs veh, TRMT61B / RFU, FUBP3 / Fold change vs veh, FUBP3 / RFU, TP53 / Fold change vs veh, TP53 / RFU, TNKS2 / Fold change vs veh, TNKS2 / RFU, ZFP14 / Fold change vs veh, ZFP14 / RFU, ACTR2 / Fold change vs veh, ACTR2 / RFU, PPP3R1 / Fold change vs veh, PPP3R1 / RFU, PIK3R1 / Fold change vs veh, PIK3R1 / RFU, HNRNPA1 / Fold change vs veh, HNRNPA1 / RFU, RNF170 / Fold change vs veh, RNF170 / RFU, ZNF28 / Fold change vs veh, ZNF28 / RFU, RNGTT / Fold change vs veh, RNGTT / RFU, OGT / Fold change vs veh, OGT / RFU, BRD1 / Fold change vs veh, BRD1 / RFU, MARS / Fold change vs veh, MARS / RFU, ZNF655 / Fold change vs veh, ZNF655 / RFU, FAHD1 / Fold change vs veh, FAHD1 / RFU, BDP1 / Fold change vs veh, BDP1 / RFU, LRRCC1 / Fold change vs veh, LRRCC1 / RFU, ARID1A / Fold change vs veh, ARID1A / RFU, ZNF146 / Fold change vs veh, ZNF146 / RFU, ZNF330 / Fold change vs veh, ZNF330 / RFU, GPN3 / Fold change vs veh, GPN3 / RFU, C9orf123 / Fold change vs veh, C9orf123 / RFU, N4BP2L2 / Fold change vs veh, N4BP2L2 / RFU, ARFIP1 / Fold change vs veh, ARFIP1 / RFU, FAM179B / Fold change vs veh, FAM179B / RFU, BCL10 / Fold change vs veh, BCL10 / RFU, UHRF1BP1L / Fold change vs veh, UHRF1BP1L / RFU, BET1 / Fold change vs veh, BET1 / RFU, CNOT2 / Fold change vs veh, CNOT2 / RFU, ZNF268 / Fold change vs veh, ZNF268 / Fold change vs veh, ZNF507 / RFU, DGCR2 / Fold change vs veh, DGCR2 / RFU, WDSUB1 / Fold change vs veh, WDSUB1 / Fold change vs veh, HSP90B1 /// MIR3652 / RFU, ADSS / Fold change vs veh, ADSS / RFU, GK / Fold change vs veh, GK / RFU, ZNF148 / Fold change vs veh, ZNF148 / RFU, TAF9 / Fold change vs veh, TAF9 / RFU, SLC1A5 / Fold change vs veh, SLC1A5 / RFU, SLMO2 / Fold change vs veh, SLMO2 / RFU, ABCC4 / Fold change vs veh, ABCC4 / RFU, LOC101060439 /// RAP1B / Fold change vs veh, LOC101060439 /// RAP1B / RFU, RFX7 / Fold change vs veh, RFX7 / RFU, GTPBP10 / Fold change vs veh, GTPBP10 / RFU, CNEP1R1 / Fold change vs veh, CNEP1R1 / RFU, BIVM-ERCC5 /// ERCC5 / Fold change vs veh, BIVM-ERCC5 /// ERCC5 / RFU, ILF3 / Fold change vs veh, ILF3 / RFU 11762660_at / Fold change /veh 11762660_at / RFU VCAN (11757783_s_at) / Fold change /veh VCAN (11757783_s_at) / RFU DDX43 (11728927_at) / Fold change /veh DDX43 (11728927_at) / RFU KRT8 (11758188_x_at) / Fold change /veh KRT8 (11758188_x_at) / RFU NKD1 (11759106_at) / Fold change /veh NKD1 (11759106_at) / RFU SRD5A1 (11742802_a_at) / Fold change /veh SRD5A1 (11742802_a_at) / RFU TPSAB1 /// TPSB2 (11721975_s_at) / Fold change /veh TPSAB1 /// TPSB2 (11721975_s_at) / RFU GSTM3 (11746129_a_at) / Fold change /veh GSTM3 (11746129_a_at) / RFU IL23R (11737362_x_at) / Fold change /veh IL23R (11737362_x_at) / RFU TMEM51 (11727254_a_at) / Fold change /veh TMEM51 (11727254_a_at) / RFU PIWIL2 (11732686_x_at) / Fold change /veh PIWIL2 (11732686_x_at) / RFU ORM1 (11744905_x_at) / Fold change /veh ORM1 (11744905_x_at) / RFU CCDC152 (11743942_at) / Fold change /veh CCDC152 (11743942_at) / RFU ECM1 (11717891_a_at) / Fold change /veh ECM1 (11717891_a_at) / RFU IL23R (11748794_a_at) / Fold change /veh IL23R (11748794_a_at) / RFU TNFAIP8L3 (11732012_x_at) / Fold change /veh TNFAIP8L3 (11732012_x_at) / RFU MBOAT4 (11741988_at) / Fold change /veh MBOAT4 (11741988_at) / RFU 11764193_at / Fold change /veh 11764193_at / RFU TMEM53 (11763286_at) / Fold change /veh TMEM53 (11763286_at) / RFU MAGEB2 (11727129_at) / Fold change /veh MAGEB2 (11727129_at) / RFU TMEM200A (11744735_a_at) / Fold change /veh TMEM200A (11744735_a_at) / RFU CCDC152 (11751479_a_at) / Fold change /veh CCDC152 (11751479_a_at) / RFU FAM211A (11726209_a_at) / Fold change /veh FAM211A (11726209_a_at) / RFU RGS16 (11746705_a_at) / Fold change /veh RGS16 (11746705_a_at) / RFU VCAN (11755009_s_at) / Fold change /veh VCAN (11755009_s_at) / RFU RHOB (11743442_s_at) / Fold change /veh RHOB (11743442_s_at) / RFU RGS16 (11720943_a_at) / Fold change /veh RGS16 (11720943_a_at) / RFU RGS16 (11720944_at) / Fold change /veh RGS16 (11720944_at) / RFU, VPS4B / Fold change vs veh, VPS4B / RFU, CREB1 / Fold change vs veh, CREB1 / RFU, DNAJC13 / Fold change vs veh, DNAJC13 / RFU, GNAQ / Fold change vs veh, GNAQ / RFU, CDK5R1 / Fold change vs veh, CDK5R1 / RFU, ZRANB3 / Fold change vs veh, ZRANB3 / RFU, CUL4A / Fold change vs veh, CUL4A / RFU, CCNY / Fold change vs veh, CCNY / RFU, UFL1 / Fold change vs veh, UFL1 / RFU, COG3 / Fold change vs veh, COG3 / RFU, DIAPH2 / Fold change vs veh, DIAPH2 / RFU, SKA2 / Fold change vs veh, SKA2 / RFU, AFF3 / Fold change vs veh, AFF3 / RFU, LMF1 / Fold change vs veh, LMF1 / RFU, IPO11 / Fold change vs veh, IPO11 / RFU, DFFB / Fold change vs veh, DFFB / RFU, FOXP1 / Fold change vs veh, FOXP1 / RFU, CARD8 / Fold change vs veh, CARD8 / RFU, STRN3 / Fold change vs veh, STRN3 / RFU, ADK / Fold change vs veh, ADK / RFU, RASSF2 / Fold change vs veh, RASSF2 / RFU, WIPF1 / Fold change vs veh, WIPF1 / RFU, LARP1B / Fold change vs veh, LARP1B / RFU, RASA1 / Fold change vs veh, RASA1 / RFU, RB1 / Fold change vs veh, RB1 / RFU, PPFIA1 / Fold change vs veh, PPFIA1 / RFU, MAT2A / Fold change vs veh, MAT2A / RFU, CCT5 / Fold change vs veh, CCT5 / RFU, WDR92 / Fold change vs veh, WDR92 / RFU, CUX1 / Fold change vs veh, CUX1 / RFU, TTC7A / Fold change vs veh, TTC7A / RFU, TMEM135 / Fold change vs veh, TMEM135 / RFU, DEPTOR / Fold change vs veh, DEPTOR / RFU, CPM / Fold change vs veh, CPM / RFU, DNAJB6 / Fold change vs veh, DNAJB6 / RFU, CACNA2D3 / Fold change vs veh, CACNA2D3 / RFU, DTX4 / Fold change vs veh, DTX4 / RFU, TFCP2 / Fold change vs veh, TFCP2 / RFU, GMCL1 /// GMCL1P1 / Fold change vs veh, GMCL1 /// GMCL1P1 / RFU, AEBP2 / Fold change vs veh, AEBP2 / RFU, SNHG1 /// SNORD22 /// SNORD25 /// SNORD26 /// SNORD27 /// SNORD28 /// SNORD29 /// SNORD31 / Fold change vs veh, SNHG1 /// SNORD22 /// SNORD25 /// SNORD26 /// SNORD27 /// SNORD28 /// SNORD29 /// SNORD31 / Fold change (Aza/veh), C12orf56 (ProbeSet 11735607_a_at) / Fold change (ACY-1035/veh), C12orf56 (ProbeSet 11735607_a_at) / Fold change (Aza/veh), FGFR1OP (ProbeSet 11751329_s_at) / Fold change (ACY-1035/veh), FGFR1OP (ProbeSet 11751329_s_at) / Fold change (Aza/veh), VPS36 (ProbeSet 11739960_a_at) / Fold change (ACY-1035/veh), VPS36 (ProbeSet 11739960_a_at) / RFU SYPL1 (11715823_x_at) / Fold change /veh SYPL1 (11715823_x_at) / RFU IGFBP7 (11715501_s_at) / Fold change /veh IGFBP7 (11715501_s_at) / RFU REEP3 (11722064_at) / Fold change /veh REEP3 (11722064_at) / RFU IGLL1 (11728026_x_at) / Fold change /veh IGLL1 (11728026_x_at): dose or concentration left out as unconfirmed
Details: ProbeSet 11732165_x_at; LIST D

With `Nc1ccc(-c2cccs2)cc1NC(=O)c1ccc2c(c1)cc(C1CC1)n2CCN1CCOCC1` [ACY-1035] the “Fold change vs veh, LMF1” value was 0.85.

Reference: article PMC5218480 (PLoS ONE, 2017)
